Tested on: Erysiphe graminis f.sp. tritici
Assay: Efficacy against Erysiphe graminis f.sp. tritici on wheat (Example B-1)
Format: in vivo
Conditions: single active ingredient
Text: A synergistic effect exists whenever the action of an active ingredient combination is greater than the sum of the actions of the individual components. The action to be expected E for a given active ingredient combination obeys the so-called COLBY formula and can be calculated as follows (COLBY, S.R. “Calculating synergistic and antagonistic responses of herbicide combination”. Weeds, Vol. 15, pages 20-22; 1967):
ppm=milligrams of active ingredient (=a.i.) per litre of spray mixture
X=% action by active ingredient I using p ppm of active ingredient
Y=% action by active ingredient II using q ppm of active ingredient.
According to Colby, the expected (additive) action of active ingredients I+II using p+q ppm of [formula]
If the action actually observed (O) is greater than the expected action (E), then the action of the combination is superadditive, i.e. there is a synergistic effect.
Wheat plants c.v. “Arina”, about 10 days old, are sprayed with aqueous suspensions of the active ingredients or mixtures thereof. One day later, the plants are inoculated by dusting with spores of Erysiphe graminis. The tests may also be carried out with curative applications, i.e. application 1-3 days after artificial inoculation of the plants. The plants are incubated in the greenhouse or in climate chambers at 20° C., 70% relative humidity. 7 to 10 days after inoculation, fungal attack on primary leaves is assessed.
The efficacy of the rest combinations and the single active ingredients in the above tests is determined by comparing the degree of fungal attack with that on untreated, similarly inoculated check plants.

Compound: CON=C(C(=O)OC)c1ccccc1CON=C(C)c1cccc(C(F)(F)F)c1 [cmpd. V, methyl 2-{2-[4-(3-trifluoromethylphenyl)-3-aza-2-oxa-3-pentenyl]-phenyl}-2-methoxyimino-acetate]
- inhibition at 0.25 ppm (Blumeria graminis, Table 3, 0.25 ppm, read-out: % activity observed): 29%
- inhibition at 0.5 ppm (Blumeria graminis, Table 3, 0.5 ppm, read-out: % activity observed): 54%

Compound: Cc1cc(C2CC2)nc(Nc2ccccc2)n1 [Cyprodinil, cyprodinil]
- % activity observed (Table 2, 10 ppm): 0%
- % activity observed (Table 2, 25 ppm): 15%

Compound: N#Cc1c[nH]cc1-c1cccc2c1OC(F)(F)O2 [Fludioxonil, fludioxonil]
- % activity observed (Table 1, 250 ppm): 20%
